Columns and labels:
[1] = test system: Brucella abortus Strain 19; assay type: cell-based
[2] = test system: Campylobacter fetus isolate [4914]; assay type: cell-based
[3] = test system: fresh semen of domestic bulls (Bos taurus) and gaur (Bos gaur) bulls; test: Sperm survival after Percoll column with trypsin, fresh bull and gaur semen; assay type: cell-based; conditions: 0.125% trypsin in 45% Percoll column
[4] = test system: confluent buffalo rat liver cell monolayers; test: Trypsin activity after dilution: detachment of confluent somatic cell monolayers; assay type: cell-based; conditions: final concentrations 0.125% and […]
[5] = test system: bovine sperm; test: Sperm viability with trypsin in density gradient (later studies)
[6] = test system: Mycoplasma species; conditions: without detrimentally affecting embryonic development in vitro; cited from earlier work
[7] = test system: cultured cells and embryos; design: dose or concentration left out as unconfirmed; conditions: 37° C.; cited from earlier work

Question: What does the source list for `CN[C@@H]1[C@H](O)[C@H](NC)[C@H]2O[C@@]3(O)C(=O)C[C@@H](C)O[C@H]3O[C@@H]2[C@H]1O` [spectinomycin]?
Answer: sensitivity of isolate to antibiotic [1]: sensitive; sensitivity of isolate to antibiotic [2]: intermediate

Question: Which results are given for `CCC[C@@H]1C[C@@H](C(=O)N[C@@H]([C@H]2O[C@H](SC)[C@H](O)[C@@H](O)[C@H]2O)[C@@H](C)O)N(C)C1` [lincomycin]?
Answer: sensitivity of isolate to antibiotic [1]: resistant; sensitivity of isolate to antibiotic [2]: sensitive

Question: With gentamicin as the compound, how does the “sensitivity of isolate to antibiotic” value [1] read?
Answer: The value was “sensitive”.

Question: And the “sensitivity of isolate to antibiotic” value [2]?
Answer: Its value is “sensitive”.

Question: Which “effect on sperm motility, viability, acrosomal integrity” value [3] does the source give for trypsin here?
Answer: The value was “no detrimental affects”.

Question: And the “enzymatic activity after dilution with Percoll, Isolate or egg yolk-based cryodiluents” value [4]?
Answer: The value was “did not diminish enzymatic activity”.

Question: What about the “effect of increasing trypsin concentration on sperm” value [5] of the same compound?
Answer: The value was “no detrimental effects”.

Question: Which “sensitivity of isolate to antibiotic” value [1] does the source give for `CC[C@H]1OC(=O)C[C@@H](O)[C@H](C)[C@@H](O[C@@H]2O[C@H](C)[C@@H](O[C@H]3C[C@@](C)(O)[C@@H](O)[C@H](C)O3)[C@H](N(C)C)[C@H]2O)[C@@H](CC=O)C[C@@H](C)C(=O)/C=C/C(C)=C/[C@@H]1CO[C@@H]1O[C@H](C)[C@@H](O)[C@@H](OC)[C@H]1OC` [tylosin] here?
Answer: The value was “intermediate”.

Question: And the “sensitivity of isolate to antibiotic” value [2]?
Answer: The value was “intermediate”.

Question: What about the “minimal concentration for eliminating Mycoplasma species from bovine embryos” value [6] of the same compound?
Answer: The value was 200 µg/mL.

Question: With `NC[C@H]1O[C@H](O[C@H]2[C@H](O)[C@@H](O[C@H]3O[C@H](CO)[C@@H](O)[C@H](N)[C@H]3O)[C@H](N)C[C@@H]2N)[C@H](O)[C@@H](O)[C@@H]1O` [kanamycin] as the compound, how does the “toxicity to cultured cells and embryos” value [7] read?
Answer: The value was “very little toxicity”.

From patent US20080026456A1, “Method and apparatus for reducing pathogens in a biological sample” (priority 2002, published 2008)
